Measurements: US10919949B2, “Acylated insulin analogues and uses thereof” (Novo Nordisk A/S, priority 2017, dated 2021)

How the values were obtained:
isolated rat adipocytes = experiment: Lipogenesis in rat free fat cell assay; type: cell-based
Procedure: The metabolic potency of the insulin derivatives of the invention was determined by lipogenesis using isolated rat adipocytes.
In brief, epididymal fat pads were removed from killed Sprague-Dawley rats and placed in degradation buffer with collagenase (Worthington) in order to degrade the fat pads into a single-cell suspension. […] The incubation was stopped by addition of MicroScint-E (PerkinElmer), and the plates counted in a TopCount NXT (PerkinElmer).

AKT and ERK = experiment: Insulin receptor signalling via AKT and ERK phosphorylation in CHO-hIR cells (Western blot / Surefire); type: cell-based, Chinese hamster; settings: 10 min stimulation, Table 1A
Procedure: Insulin receptor (IR) signalling of the analogues of this invention via AKT and ERK pathways was assessed either by traditional Western blotting technique or by the use of Surefire, alphascreen technique.
In brief, CHO-hIR cells were stimulated for 10 min with increasing concentrations of the insulin analogue, washed in ice-cold PBS, snap-frozen and lysed in lysis buffer (Biosource). Equal amounts of proteins were loaded on gels and blotted to nitrocellulose membranes. Phosphorylated AKT and ERK were visualised with Phospho-AKT (Ser473) (Cell signalling #9271) and pMAPK 44/42 ERK1/2 rabbit (Cell Signalling #4376) antibodies, respectively. Band intensities were evaluated using a LAS3000 (Fuji).
The responsiveness value (Span) for each analogue was calculated using non-linear regression in GraphPad Prism 7 from GraphPad Software Inc and expresses as percent of the responsiveness of insulin (% max AKT or % max ERK)

[1] = 0.1% HSA as printed, Table 1A second lipogenesis column
[2] = 0.1% HSA, Table 1A first lipogenesis column

Substance | Lipogenesis 0.1% HSA EC50 (% of human insulin) (isolated rat adipocytes; [1]) | Lipogenesis 0.1% HSA EC50 (% of human insulin) (isolated rat adipocytes; [2]) | % maxERK/% maxAKT (AKT and ERK)
N{Epsilon-B28}-[(4S)-4-carboxy-4-[[(4R)-4-[(3R,10S,13R,17R)-3-hydroxy-10,13-dimethyl-2,3,4,5,6,7,8,9,11,12,14,15,16,17-tetradecahydro-1H-cyclopenta[a]phenanthren-17-yl]pentanoyl]amino]butanoyl]-[TyrB5,LysB28],des-(B29-B30)-Insulin [Example 8] | 0.72 % of human insulin | 1.76 % of human insulin | 0.32
N{Epsilon-B28}-[(4R)-4-[(3R,10S,13R,17R)-3-hydroxy-10,13-dimethyl-2,3,4,5,6,7,8,9,11,12,14,15,16,17-tetradecahydro-1H-cyclopenta[a]phenanthren-17-yl]pentanoyl]-[TyrB5,LysB28],des-(B29-B30)-Insulin [Example 9] | 0.49 % of human insulin | 0.40 % of human insulin | 0.29
